Experimental data: patent US9809597B2, “Ganciclovir derivatives for modulating innate and adaptive immunity and for use in immunotherapy” (The Board of Trustees of the Leland Stanford Junior …, priority 2015, dated 2017)

Key:
BV-2 cells = assay: RT-PCR for CXCL10 and IFNβ transcripts in BV-2 cells; type: cell-based, mouse; settings: for induction of CXCL10 mRNA / induction of IFNβ transcript: 200 μM; for induction of IFNβ transcript: microglia (BV-2, primary); for induction of CXCL10 mRNA on neutralization of IFNβ with an antibody: 200 μM with anti-IFNβ antibody, 4 hours
Description: (§1) BV-2 mouse microglia cells were grown in DMEM+10% FBS and THP-1 human monocyte cells were grown in RPMI-40+10% FBS+0.05 mM β-mercaptoethanol at 37° C., 5% CO2. Adherent cells were split using 1×TrypLE (Gibco). For cellular assays, cells were treated with the following concentrations of drugs as indicated in the DMEM without serum: 100-200 μM ganciclovir, 10 ng/ml IFNγ (R&D systems), 100 ng/ml LPS (Sigma-Aldrich), 1-10 μM Fludarabine (Selleckchem), 1 μM Ruxolitinib (Selleckchem), 1 μM TG-101348 (Selleckchem), 1 μM Amlexanox (Tocris bioscience) unless otherwise noted. All experiments were run in triplicates and replicated at least 3 times with cell lines and at least twice with primary microglia. Average data are shown for cell lines and representative data are shown for primary cells. Secreted signaling proteins were measured in supernatants from cultured cells stimulated with GCV and conditioned for 24 hours in the absence of serum using two independent Luminex arrays (Human Immune Monitoring Center, Stanford and Eve technologies, Canada). Nitrite assay was performed on conditioned culture supernatants of cells stimulated with drugs for 24 hours using the Griess Reagent System (Promega) according to manufacturer's instructions. To assess cellular viability, cell confluence was measured using an automated microscope (Cellavista; Roche).
(§2) RNA was isolated from cells using RNeasy mini kit from Qiagen. DNased RNA was converted to cDNA using SuperScript III reverse transcriptase kit (Life technologies). The cDNA was used to quantify specific targets using SYBR green in Roche Lightcycler 480. ΔΔCt values normalized against the experimental control to determine fold change in mRNA for each sample compared to untreated or vehicle treated control. β-actin or Ubc or both were used as housekeeping genes. Primer sequences were obtained from PrimerBank. Fold change is shown compared to the vehicle treated or untreated cells, unless otherwise noted.

[1] = system: THP-1 human monocyte cells; assay: RT-PCR for CXCL10 in THP-1 cells; type: cell-based; settings: 200 μM, 8-24 hours
Description: as §1, with “Roche). […]” for “Roche).”

BV-2 microglia = assay: siRNA knockdown (STING, IRF3, Stat1, Jak2), then RT-PCR for CXCL10; type: cell-based, mouse; settings: for CXCL10 or IFNβ mRNA expression after siRNA knockdown of Stat1 and Jak2 or lack of Stat1: BV-2 cells (siRNA) or Stat1 knockout primary microglia, 200 μM
Description: Smartpool siRNAs against mouse targets were bought from Dharmacon and transfected in microglia cells using Viromer Blue from Lipocalyx at a concentration of 50 nM according to manufacturer's instructions. Drugs were added cells after 24 hours of transfection and assays done 24 hours after addition of drugs.
as §2

[2] = system: BV-2 and primary microglia stimulated with IFNγ and LPS; assay: RT-PCR of inflammatory transcripts in IFNγ/LPS stimulated microglia; type: cell-based, mouse; settings: IFNγ/LPS stimulated BV-2 microglia, 200 μM, 24 hours
Description: BV-2 mouse microglia cells were grown in DMEM+10% FBS and THP-1 human monocyte cells were grown in RPMI-40+10% FBS+0.05 mM β-mercaptoethanol at 37° C., 5% CO2. Adherent cells were split using 1×TrypLE (Gibco). For cellular assays, cells were treated with the following concentrations of drugs as indicated in the DMEM without serum: 100-200 μM ganciclovir, 10 ng/ml IFNγ (R&D systems), 100 ng/ml LPS (Sigma-Aldrich), 1-10 μM Fludarabine (Selleckchem), 1 μM Ruxolitinib (Selleckchem), 1 μM TG-101348 (Selleckchem), 1 μM Amlexanox (Tocris bioscience) unless otherwise noted. All experiments were run in triplicates and replicated at least 3 times with cell lines and at least twice with primary microglia. Average data are shown for cell lines and representative data are shown for primary cells. Secreted signaling proteins were measured in supernatants from cultured cells stimulated with GCV and conditioned for 24 hours in the absence of serum using two independent Luminex arrays (Human Immune Monitoring Center, Stanford and Eve technologies, Canada). Nitrite assay was performed on conditioned culture supernatants of cells stimulated with drugs for 24 hours using the Griess Reagent System (Promega) according to manufacturer's instructions. To assess cellular viability, cell confluence was measured using an automated microscope (Cellavista; Roche). Mice were housed and bred according to the Institutional Animal Care and Use Committee guidelines. Primary microglia and astrocytes were isolated from P0-P3 C57BL/6 mouse pups. Cortices from pups were isolated, meninges removed and tissue was dissociated using a 25-gauge needle. Two cortices were plated on each poly-L-lysine coated T-75 flasks in DMEM/F12+10% FBS+1% penicillin/streptomycin. Microglia and astrocyte co-cultures were maintained for 3 weeks, after which microglia were isolated using CD11b magnetic beads (Miltenyi Biotec) according to the manufacturer's instructions. Isolated microglia were allowed to recover for 1-2 days and processed for cellular assays described above. RNA was isolated from cells using RNeasy mini kit from Qiagen. […] was converted to cDNA using SuperScript III reverse transcriptase kit (Life technologies). The cDNA was used to quantify specific targets using SYBR green in Roche Lightcycler 480. ΔΔCt values normalized against the experimental control to determine fold change in mRNA for each sample compared to untreated or vehicle treated control. β-actin or Ubc or both were used as housekeeping genes. Primer sequences were obtained from PrimerBank. Fold change is shown compared to the vehicle treated or untreated cells, unless otherwise noted.

[3] = system: IFNγ/LPS stimulated BV-2 microglia; assay: Nitrite assay (Griess) on culture supernatants; type: cell-based, mouse; settings: 24 hours
Description: as §1

primary microglia = assay: RT-PCR for CXCL10 and IFNβ transcripts in primary microglia (wildtype, tk KO, STING^gt/gt); type: cell-based, mouse; settings: 200 μM, 6 hours; for CXCL10 mRNA in microglia from tk1 knockout mice: adult tk1 knockout primary microglia; for induction of CXCL10 mRNA in STING^gt/gt primary microglia / induction of IFNβ mRNA in STING^gt/gt primary microglia: primary microglia lacking functional STING
Description: Mice were housed and bred according to the Institutional Animal Care and Use Committee guidelines. Primary microglia and astrocytes were isolated from P0-P3 C57BL/6 mouse pups. Cortices from pups were isolated, meninges removed and tissue was dissociated using a 25-gauge needle. Two cortices were plated on each poly-L-lysine coated T-75 flasks in DMEM/F12+10% FBS+1% penicillin/streptomycin. Microglia and astrocyte co-cultures were maintained for 3 weeks, after which microglia were isolated using CD11b magnetic beads (Miltenyi Biotec) according to the manufacturer's instructions. Isolated microglia were allowed to recover for 1-2 days and processed for cellular assays described above.
For tk KO experiments only, microglia were isolated from adult mouse brains using the neural dissociation kit (Miltenyi Biotec) according to manufacturer's protocol followed by CD11b magnetic bead enrichment. Isolated cells were cultured for 3-4 days before the experiment.
as §2

[4] = BV-2 microglia, siRNA 24 hours, then 200 μM for 24 hours

Nc1nc2c(ncn2COCCO)c(=O)[nH]1 [Acyclovir]
induction of CXCL10 mRNA (BV-2 cells; BV-2 cells, 24 hours): failed to induce

CC(C)c1ccc2oc3nc(N)c(C(=O)O)cc3c(=O)c2c1 [Amlexanox]
inhibition of CXCL10 mRNA induction by GCV and diGCV (Tbk1 inhibition) (BV-2 cells; BV-2 cells, 1 μM Amlexanox with 200 μM GCV or diGCV, 24 hours): inhibited

Nc1ccn(C[C@@H](CO)OCP(=O)(O)O)c(=O)n1 [Cidofovir]
induction of CXCL10 mRNA (BV-2 cells; BV-2 cells, 24 hours): failed to induce

Cc1ccc2c(=O)c3cccc(CC(=O)O)c3oc2c1C [DMXAA]
induction of CXCL10 mRNA (BV-2 cells; BV-2 cells, 24 hours): strongly induced | induction of IFNβ transcript (BV-2 cells): strongly induced | induction of CXCL10 mRNA in human monocyte cell line [1]: did not

O=C(O)P(=O)(O)O [Foscarnet]
induction of CXCL10 mRNA (BV-2 cells; BV-2 cells, 24 hours): failed to induce

Nc1nc2c(ncn2CCC(CO)CO)c(=O)[nH]1 [Penciclovir]
induction of CXCL10 mRNA (BV-2 cells; BV-2 cells, 24 hours): failed to induce

NC(=O)c1ncn([C@@H]2O[C@H](CO)[C@@H](O)[C@H]2O)n1 [Ribavirin]
induction of CXCL10 mRNA (BV-2 cells; BV-2 cells, 24 hours): failed to induce

Cc1cnc(Nc2ccc(OCCN3CCCC3)cc2)nc1Nc1cccc(S(=O)(=O)NC(C)(C)C)c1 [TG101348]
inhibition of CXCL10 production in response to GCV and diGCV (BV-2 cells; BV-2 cells, 24 hours, 10 μM Fludarabine or 1 μM Jak inhibitor with 200 μM GCV or diGCV): strongly inhibited | inhibition of CXCL10 production in response to cGAMP (BV-2 cells; BV-2 cells, 24 hours, 10 μM Fludarabine or 1 μM Jak inhibitor with 200 μM cGAMP): somewhat less pronounced

Nc1ncnc2c1ncn2[C@@H]1O[C@H](CO)[C@@H](O)[C@@H]1O [Vidarabine]
induction of CXCL10 mRNA (BV-2 cells; BV-2 cells, 24 hours): failed to induce

Nc1nc2c(ncn2[C@@H]2O[C@@H]3COP(=O)(O)O[C@H]4[C@@H](O)[C@H](n5cnc6c(=O)[nH]c(N)nc65)O[C@@H]4COP(=O)(O)O[C@H]3[C@H]2O)c(=O)[nH]1 [c-diGMP]
induction of CXCL10 mRNA (BV-2 cells; BV-2 cells, 24 hours): strongly induced | induction of IFNβ transcript (BV-2 cells): strongly induced

Nc1nc2c(ncn2[C@@H]2O[C@@H]3COP(=O)(O)O[C@H]4[C@@H](O)[C@H](n5cnc6c(N)ncnc65)O[C@@H]4COP(=O)(O)O[C@@H]2[C@@H]3O)c(=O)[nH]1 [cGAMP, cyclic-GAMP]
induction of CXCL10 mRNA on neutralization of IFNβ with an antibody (BV-2 cells; BV-2 cells): partly reduced | induction of CXCL10 mRNA (BV-2 cells; BV-2 cells, 24 hours): strongly induced | induction of IFNβ transcript (BV-2 cells): strongly induced | CXCL10 or IFNβ mRNA expression after siRNA knockdown of Stat1 and Jak2 or lack of Stat1 (BV-2 microglia): significantly reduced

NC1=Nc2c(ncn2COC(CO)CO)C(OCCOCCOCCOCCOc2nc(N)nc3c2ncn3COC(CO)CO)N1 (centres unmarked) [diGCV, 2-({2-Amino-6-[2-(2-{2-[2-(2-amino-9-{[2-hydroxy-1-(hydroxymethyl)ethoxy]methyl}-9H-purin-6-yloxy)ethoxy]ethoxy}ethoxy)ethoxy]-6,9-dihydro-1H-purin-9-yl}methoxy)-1,3-propanediol]
inflammatory markers (transcripts) [2]: potently reduced | microglial nitric oxide production (nitrite assay) [3]: potently reduced | induction of CXCL10 mRNA on neutralization of IFNβ with an antibody (BV-2 cells; BV-2 cells): partly reduced | induction of CXCL10 mRNA (BV-2 cells; BV-2 cells, 24 hours): increased potency | CXCL10 mRNA in microglia from tk1 knockout mice (primary microglia): triggered CXCL10 independent of endogenous tk1 | induction of CXCL10 mRNA in STING^gt/gt primary microglia (primary microglia): failed to induce | induction of IFNβ mRNA in STING^gt/gt primary microglia (primary microglia): failed to induce | CXCL10 or IFNβ mRNA expression after siRNA knockdown of Stat1 and Jak2 or lack of Stat1 (BV-2 microglia): significantly reduced | capacity to induce CXCL10 after siRNA knock down of STING (BV-2 microglia; [4]): largely abrogated | potential to induce CXCL10 mRNA after siRNA knockdown of IRF3 (BV-2 microglia; [4]): inhibited

Nc1nc2nc[nH]c2c(=O)[nH]1 [guanine]
induction of CXCL10 mRNA (BV-2 cells; BV-2 cells, 24 hours): failed to induce

Nc1nc2c(ncn2[C@@H]2O[C@H](CO)[C@@H](O)[C@H]2O)c(=O)[nH]1 [guanosine]
induction of CXCL10 mRNA (BV-2 cells; BV-2 cells, 24 hours): failed to induce

NC1=Nc2c(ncn2COC(CO)CO)C(OCCOCCOCCOCCO)N1 (centres unmarked) [monoGCV, 2-{[2-Amino-6-(2-{2-[2-(2-hydroxyethoxy)ethoxy]ethoxy}ethoxy)-6,9-dihydro-1H-purin-9-yl]methoxy}-1,3-propanediol]
inflammatory markers (transcripts) [2]: potently reduced | microglial nitric oxide production (nitrite assay) [3]: potently reduced | induction of CXCL10 mRNA on neutralization of IFNβ with an antibody (BV-2 cells; BV-2 cells): partly reduced | CXCL10 mRNA in microglia from tk1 knockout mice (primary microglia): triggered CXCL10 independent of endogenous tk1 | induction of CXCL10 mRNA in STING^gt/gt primary microglia (primary microglia): failed to induce | induction of IFNβ mRNA in STING^gt/gt primary microglia (primary microglia): failed to induce | CXCL10 or IFNβ mRNA expression after siRNA knockdown of Stat1 and Jak2 or lack of Stat1 (BV-2 microglia): significantly reduced

NC1=Nc2c(ncn2COC(CO)CO)C(OCCCSSCCCOC2NC(N)=Nc3c2ncn3COC(CO)CO)N1 (centres unmarked) [thiol-GCV, 2-[(2-Amino-6-{3-[3-(2-amino-9-{[2-hydroxy-1-(hydroxymethyl)ethoxy]methyl}-6,9-dihydro-1H-purin-6-yloxy)propyldithio]propoxy}-6,9-dihydro-1H-purin-9-yl)methoxy]-1,3-propanediol]
induction of CXCL10 mRNA (BV-2 cells; BV-2 cells, 24 hours): increased potency
